Test results from ChEMBL document CHEMBL1201862, “PubChem BioAssay data set” (2004).
The source made the active and inactive calls.

What was measured:
[1] = molecular target: Induced myeloid leukemia cell differentiation protein Mcl-1 (Homo sapiens, UniProt Q07820); assay: MCL1-BIM BH3 interaction inhibitors, dose response, biochemical, fluorescence polarization, BIM-BH3 peptide, 1536-well (AID 2217)
Bcl-2-like protein 1 = Bcl-2-like protein 1 (Homo sapiens, UniProt Q07817); assay: BCL-XL inhibitors, dose response, selectivity assay for MCL1 inhibitor project, biochemical, fluorescence polarization, 1536-well (AID 2218)
Bcl-2-like protein 1, sequence (Q07817 whole entry): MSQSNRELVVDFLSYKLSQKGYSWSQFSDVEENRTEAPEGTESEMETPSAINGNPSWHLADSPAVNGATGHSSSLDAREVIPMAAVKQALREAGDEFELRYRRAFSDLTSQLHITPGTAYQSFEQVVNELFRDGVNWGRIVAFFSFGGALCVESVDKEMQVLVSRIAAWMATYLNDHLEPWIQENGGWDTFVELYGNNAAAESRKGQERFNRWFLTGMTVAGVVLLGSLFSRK

Caspase-6 = molecular target: T1, Caspase-6 (Homo sapiens, UniProt P55212); assay: human caspase-6 inhibitors, dose response, biochemical, VEID-R110 fluorescence, cherry-pick (AID 720632)
T1 sequence (P55212 whole entry): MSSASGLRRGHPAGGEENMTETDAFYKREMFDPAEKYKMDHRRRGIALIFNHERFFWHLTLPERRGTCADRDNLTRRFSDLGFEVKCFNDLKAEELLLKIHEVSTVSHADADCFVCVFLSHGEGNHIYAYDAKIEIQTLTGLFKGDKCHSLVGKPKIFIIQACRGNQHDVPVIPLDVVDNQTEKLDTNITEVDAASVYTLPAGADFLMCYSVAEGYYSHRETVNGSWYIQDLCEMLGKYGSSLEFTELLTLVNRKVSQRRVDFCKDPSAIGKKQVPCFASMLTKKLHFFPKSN

[2] = A High Throughput Confirmatory Assay used to Identify Novel Compounds that Inhibit Mycobacterium Tuberculosis in the absence of Glycerol.; assay type: functional
[3] = Luminescence Cell-Based Dose Response to Identify Activators of 5'UTR Stem-Loop Driven Prion Protein mRNA Translation in H4-C Neuroglioblastoma Cells. [Related pubchem assays: 1829 (Project Summary), 1814 (Primary HTS)]; assay type: functional
[4] = Luminescence Cell-Based Dose Confirmation HTS to Identify Activators of 5'UTR Stem-Loop Driven Alpha-Synuclein mRNA Translation in H4 Neuroglioblastoma Cells. [Related pubchem assays: 1829 (Project Summary), 1814 (Primary HTS)]; assay type: functional
[5] = insulin promoter down-regulators in MIN6 cells, imaging, high-content screening, mouse beta cells (AID 1628); assay type: functional
[6] = Luminescence Cell-Based Dose Response HTS to Identify Activators of Luciferase Translation or Activity in H4 […] Cells. [Related pubchem assays: 1829 (Project Summary), 1814 (Primary HTS)]; assay type: functional
BJ [7] = assay: cytotoxicity toward BJ-TERT fibroblasts, dose response, cell-based, RAS-independent, luminescence (AID 1933); assay type: functional; details: Homo sapiens
[8] = cytotoxicity in MIN6 insulinoma cells, dose response, cytotoxicity control, cell-based, mouse insulinoma (AID 2122); assay type: functional;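 further: confirmatory high-throughput counterscreen run to flag cytotoxic compounds; mouse MIN-6 beta cells carrying an insulin promoter eGFP reporter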
BJ [9] = assay: cells; assay type: functional, cell-based; details: Homo sapiens
[10] = Luminescence Cell-Based Dose Response to Identify Activators of Luciferase Translation or Activity in H4-C Neuroglioblastoma Cells. [Related pubchem assays: 1829 (Project Summary), 1814 (Primary HTS)]; assay type: functional
[11] = Luminescence-based dose response cell-based high throughput screening assay for cytotoxic compounds using the IEC-6 intestinal epithelial cell line. [Related pubchem assays: 1858 (Summary AID.), 1825 (Counterscreen.), 1907 (Confirmation screen.)]; assay type: functional
[12] = Luminescence Cell-Based Dose Confirmation to Identify Activators of 5'UTR Stem-Loop Driven Alpha-Synuclein mRNA Translation in H4 Neuroglioblastoma Cells. [Related pubchem assays: 1829 (Project Summary), 1814 (Primary HTS)]; assay type: functional
BJ [13] = assay: cytotoxicity toward BJ-TERT-LT-ST fibroblasts, dose response, cell-based, RAS-independent, luminescence (AID 1935); assay type: functional; details: Homo sapiens;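 further: BJ fibroblasts immortalized with TERT plus LT and ST oncogenes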
[14] = cytotoxicity toward DRD oncogenic fibroblasts, dose response, cell-based, non-viral oncogenic, luminescence (AID 1934); assay type: functional; details: Homo sapiens
BJ [15] = assay: cytotoxicity toward Ras-transformed BJeLR fibroblasts, dose response, cell-based, alamar blue fluorescence, cherrypicked samples (AID 2631); assay type: functional; details: Homo sapiens;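 further: confirmatory dose-response assay in RAS-dependent BJ fibroblasts engineered with TERT, LT and ST, with cytotoxicity read by fluorescence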
[16] = Shn3 3'UTR reporter inhibitors, dose response, cell-based, Clone20 osteoblasts, firefly luciferase, cherry-picked (AID 624132); assay type: functional;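 further: firefly luciferase luminescence from reporter carrying the Shn3 3'UTR in osteoblasts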
[17] = control 3'UTR Renilla luciferase suppression, dose response, counter-screen for Shn3 inhibitor project, cell-based, Clone20-Shn3RL, cherry-picked (AID 624133); assay type: functional
[18] = inhibitors of HIV Env-driven cell fusion, dose response, cherry-pick (AID 652057); assay type: functional, cell-based
[19] = CEM21 lymphoblast cell cytotoxicity, dose response, cytotoxicity control for viral fusion inhibitor project, CellTiter-Glo luminescence, cherry-picked (AID 652042); assay type: functional, cell-based;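 further: potency for signal decrease meaning cytotoxicity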
[20] = ZM109 Env clade C HIV-1 fusion inhibitors, dose response, HeLa effector, CEM target cells, luciferase, cherry-pick (AID 652058); assay type: functional, cell-based
[21] = off-target signal loss in HeLa-CEM21 co-culture – HeLa F-luc CTL cells, cherry-picked, counter-screen for HIV-1 Env fusion inhibitor project, dose response (AID 652040); assay type: functional, cell-based;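 further: potency for signal decrease marking cytotoxic or nonspecific inhibition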
[22] = inhibitors of clade B AD8 Env fusion, dose response, cell-based, cherry-pick (AID 652062); assay type: functional;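 further: luciferase signal from cell-cell fusion driven by HIV-1 clade B AD8 Env; potency is for inhibitors of fusion seen as a drop in luminescence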
[23] = molecular target: COUP transcription factor 2 (Homo sapiens, UniProt P24468); assay: Luminescence-based cell-based high throughput dose response assay to identify inhibitors of COUP-TFII (NR2F2).; assay type: functional;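 further: HEK293 cells transiently cotransfected with COUP-TFII expression vector and reporter; luciferase reporter luminescence driven by COUP-TFII from the pX2-168 reporter plasmid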
COUP transcription factor 2, sequence (P24468 whole entry): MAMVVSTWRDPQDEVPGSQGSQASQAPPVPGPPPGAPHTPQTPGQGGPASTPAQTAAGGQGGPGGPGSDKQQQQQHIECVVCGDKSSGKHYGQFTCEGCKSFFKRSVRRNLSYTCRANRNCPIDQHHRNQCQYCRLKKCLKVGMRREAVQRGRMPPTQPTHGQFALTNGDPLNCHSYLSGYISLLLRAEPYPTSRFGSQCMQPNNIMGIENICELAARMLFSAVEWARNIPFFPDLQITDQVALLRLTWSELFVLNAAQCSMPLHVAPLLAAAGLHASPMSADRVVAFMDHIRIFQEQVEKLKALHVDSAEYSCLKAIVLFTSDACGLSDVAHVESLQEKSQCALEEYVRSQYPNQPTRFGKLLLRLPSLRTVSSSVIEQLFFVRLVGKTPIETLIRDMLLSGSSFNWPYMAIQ

Induced myeloid leukemia cell differentiation protein Mcl-1, sequence (Q07820 whole entry): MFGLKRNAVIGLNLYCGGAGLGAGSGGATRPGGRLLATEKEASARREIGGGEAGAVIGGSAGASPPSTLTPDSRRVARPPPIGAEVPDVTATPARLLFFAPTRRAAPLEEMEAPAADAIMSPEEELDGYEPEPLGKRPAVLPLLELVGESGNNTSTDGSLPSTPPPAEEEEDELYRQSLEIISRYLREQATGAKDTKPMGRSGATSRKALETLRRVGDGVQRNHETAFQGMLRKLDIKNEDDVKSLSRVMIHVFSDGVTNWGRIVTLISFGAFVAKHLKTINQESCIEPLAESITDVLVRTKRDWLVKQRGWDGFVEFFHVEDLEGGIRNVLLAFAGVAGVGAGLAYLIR

C/C(=N\NC(=O)c1cc(O)ccc1O)c1cccc(NC(=O)c2ccc(Cl)cc2)c1
IC50 [1]: 59100 nM (not active) | IC50 (Bcl-2-like protein 1): > 109000 nM (not active) | AC50 (Caspase-6): 8910 nM (active)

COC(=O)[C@@H](NC(=O)O[C@@H]1C(=O)c2ccc(OC)cc2O[C@H]1c1cccc(C(F)(F)F)c1)C(C)C
IC50 [2]: > 100000 nM (active)

O=C1N(c2ccccc2)C[C@@H]2C[C@@H](c3cc4ccccc4o3)N3CCC[C@@]123
EC50 [3]: 239 nM (inconclusive) | EC50 [4]: > 120000 nM (not active) | IC50 [5]: 441 nM (active) | EC50 [6]: > 120000 nM (not active) | EC50 (BJ [7]): 1370 nM (active) | IC50 [8]: 535 nM (active) | EC50 (BJ [9]): 2350 nM (active) | EC50 [10]: 266 nM (inconclusive) | IC50 [11]: 189 nM (active) | EC50 [12]: 1600 nM (active) | EC50 (BJ [13]): 318 nM (inconclusive) | EC50 [14]: 480 nM (active) | EC50 (BJ [15]): 205 nM (active) | AC50 [16]: 536 nM (active) | AC50 [17]: 29900 nM (active) | AC50 [18]: 1010 nM (active) | AC50 [19]: 534 nM (active) | AC50 [20]: 1300 nM (active) | AC50 [21]: 1260 nM (active) | AC50 [22]: 1270 nM (active) | IC50 [23]: 737 nM (active)
